# Reference: US20200024315A1, “ANTIMICROBIAL PEPTIDES AND METHODS OF TREATING GRAM-NEGATIVE PATHOGENS” (THE REGENTS OF THE UNIVERSITY OF COLORADO, a body corporate, priority 2017, published 2020)
# Square brackets hold non-standard residues; d marks the D form. Orn = NCCC[C@H](N)C(=O)O
# B1: D52 (peptide)
# chain: Ac-[dA][dL][dK][dK][dL][dL][dS][dT][dL][dS][dS][dA][dK][dS][dS][dK][dL][dS][dT][dL][dL][dK][dA][dL][dK][dK]-NH2
# SMILES: CC(=O)N[C@H](C)C(=O)N[C@H](CC(C)C)C(=O)N[C@H](CCCCN)C(=O)N[C@H](CCCCN)C(=O)N[C@H](CC(C)C)C(=O)N[C@H](CC(C)C)C(=O)N[C@H](CO)C(=O)N[C@@H](C(=O)N[C@H](CC(C)C)C(=O)N[C@H](CO)C(=O)N[C@H](CO)C(=O)N[C@H](C)C(=O)N[C@H](CCCCN)C(=O)N[C@H](CO)C(=O)N[C@H](CO)C(=O)N[C@H](CCCCN)C(=O)N[C@H](CC(C)C)C(=O)N[C@H](CO)C(=O)N[C@@H](C(=O)N[C@H](CC(C)C)C(=O)N[C@H](CC(C)C)C(=O)N[C@H](CCCCN)C(=O)N[C@H](C)C(=O)N[C@H](CC(C)C)C(=O)N[C@H](CCCCN)C(=O)N[C@H](CCCCN)C(N)=O)[C@H](C)O)[C@H](C)O
# B2: D26 (K13A, K16A) (peptide)
# chain: Ac-[dK][dL][dK][dS][dL][dL][dS][dT][dL][dS][dS][dA][dA][dK][dK][dA][dL][dS][dT][dL][dL][dS][dA][dL][dS][dK]-NH2
# Experiments:
# [1] = Circular dichroism (CD) spectroscopy, characterization of helical structure; format: physicochemical; settings: for α-helical content (% helix) in aqueous conditions: aqueous benign buffer pH 7.0, 5° C.; for helical structure in hydrophobic medium containing 50% TFE: buffer pH 7.0 / 50% TFE, 5° C.; for inducible helical structure Δ[Θ]222 nm TFE-Aqueous: difference 50% TFE minus aqueous buffer
# Procedure: The mean residue molar ellipticities of peptides were determined by circular dichroism (CD) spectroscopy, using a Jasco J-815 spectropolarimeter (Jasco Inc. Easton, Md., USA) at 5° C. under benign (non-denaturing) conditions (50 mM NaH2PO4/Na2HPO4/100 mM KCl, pH 7.0), hereafter referred to as benign buffer, as well as in the presence of an alpha-helix inducing solvent, 2,2,2-trifluoroethanol, TFE, (50 mM NaH2PO4/Na2HPO4/100 mM KCl, pH 7.0 buffer/50% TFE). A 10-fold dilution of an approximately 500 microM stock solution of the peptide analogs was loaded into a 0.1 cm quartz cell and its ellipticity scanned from 195 to 250 nm. Peptide concentrations were determined by amino acid analysis.
# [2] = Temperature profiling in RP-HPLC (peptide self-association); format: physicochemical; settings: RP-HPLC pH 2, 5° C.-77° C., maximum change in retention time relative to random coil standards
# Description: Peptide self-association, the ability to oligomerize/dimerize in aqueous solution, is an important parameter that can improve antimicrobial activity while removing toxicity. The inventors hypothesize that the monomeric random-coil antimicrobial peptides in aqueous solution are best suited to pass through a polysaccharide capsule, the outer membrane lipopolysaccharide and the cell wall peptidoglycan layer of microorganisms prior to penetration into the cytoplasmic membrane, induction of alpha-helical structure and disruption of membrane structure to kill target cells. […] In the present study, the ability of the AMPs to self-associate was determined by a technique developed in the inventors' laboratory, referred to as RP-HPLC temperature profiling at pH 2 over the temperature range of 5° C. to 80° C. […]
# Purified peptides were analyzed on an Agilent 1200 series liquid chromatograph for temperature profiling using a Zorbax 300 SB-C8 column (150 mm×2.1 mm I.D.; 5 μm particle size, 300 Å pore size) from Agilent Technologies. […]
# FIGS. 5-8 illustrate self-association profiles of the α-helical AMP analogs as determined by temperature profiling in RP-HPLC. […]
# [3] = tested on: A. baumannii compared to P. aeruginosa; assay: Selectivity (MICGM P. aeruginosa/MICGM A. baumannii); format: cell-based, Acinetobacter baumannii
# [4] = tested on: human erythrocytes; assay: Hemolytic activity against human erythrocytes; format: cell-based; settings: 1% human erythrocytes, 18 h, 37° C.
# Procedure: Peptide samples (concentrations determined by amino acid analysis) were added to 1% human erythrocytes in phosphate-buffered saline (100 mM NaCl, 80 mM Na2HPO4, 20 mM NaH2PO4, pH 7.4) and the reaction mixtures were incubated at 37° C. for 18 h in microtiter plates. Two-fold serial dilutions of the peptide samples were carried out. This determination was made by withdrawing aliquots from the hemolysis assays and removing unlysed erythrocytes by centrifugation (800×g). Hemoglobin release was determined spectrophotometrically at 570 nm. The control for 100% hemolysis was a sample of erythrocytes treated with water. The control for no release of hemoglobin was a sample of 1% erythrocytes without any peptide added. Since erythrocytes were in an isotonic medium, no detectable release (<1% of that released upon complete hemolysis) of hemoglobin was observed from this control during the assay. The hemolytic activity is generally determined as the peptide concentration that causes 50% hemolysis of erythrocytes after 18 h (HC50). HC50 was determined from a plot of percent lysis versus peptide concentration (microM). If 50% hemolysis could not be reached, the inventors used HC30 values (30% hemolysis).
# [5] = tested on: Pseudomonas aeruginosa; assay: Antimicrobial activity against Pseudomonas aeruginosa; format: cell-based
# Procedure: In the current study de novo designed AMPs were tested against seven diverse clinical isolates of the Gram-negative pathogen A. baumannii and seven A. baumannii strains resistant to polymyxin B and polymyxin E (Colistin). In addition, the inventors tested these AMPs against six diverse clinical isolates of the Gram-negative pathogen, P. aeruginosa, and nine Gram-positive methicillin-sensitive S. aureus clinical isolates and eight Gram-positive methicillin/oxacillin-resistant S. aureus strains. This testing allows for the determination of pathogen selectivity between Gram-negative and Gram-positive pathogens as the location of the positively charged residues on the polar face is varied.
# The minimal inhibitory concentration (MIC) is defined as the lowest peptide concentration that inhibited bacterial growth. MICs were measured by a standard microtiter dilution method in Mueller Hinton (MH) medium. Briefly, cells were grown overnight at 37° C. in MH broth and were diluted in the same medium. Serial dilutions of the peptides were added to the microtiter plates in a volume of 50 microL, followed by the addition of 50 microL of bacteria to give a final inoculum of 5×10^5 colony-forming units (CFU)/mL. The plates were incubated at 37° C. for 24 h, and the MICs were determined.
# [6] = molecular target: D52; assay: RP-HPLC temperature profiling 5-77 C, pH 2; self-association (monomer-dimer) of the peptide
# [7] = molecular target: D26 (K13A, K16A); assay: as above
molecule,measurement,setting,value
Ac-ALKKLLSTLSSAKSSKLSTLLKALKK-amide (Ac-ALKKLLSTLSSAKSSKLSTLLKALKK-NH2) [D52],α-helical content (% helix) in aqueous conditions,[1],13.7%
same,helical structure in hydrophobic medium containing 50% TFE,[1],100%
same,inducible helical structure Δ[Θ]222 nm TFE-Aqueous,[1],1422
same,peptide self-association parameter PA,[2],7.78 min
Ac-ALKKLLSTLSSARSSRLSTLLKALKK-NH2 [D58],α-helical content (% helix) in aqueous conditions,[1],7.2%
same,inducible helical structure Δ[Θ]222 nm TFE-Aqueous,[1],750
Ac-ALKKLLSTLSSA[Orn]SS[Orn]LSTLLKALKK-NH2 [D56],α-helical content (% helix) in aqueous conditions,[1],3.5%
same,helical structure in hydrophobic medium containing 50% TFE,[1],27.2%
Ac-AL[Orn][Orn]LLSTLSSAKSSKLSTLL[Orn]AL[Orn][Orn]-NH2 [D59],α-helical content (% helix) in aqueous conditions,[1],6.9%
same,inducible helical structure Δ[Θ]222 nm TFE-Aqueous,[1],1061
"Ac-KLKSLLKTLSKAKKKKLKTLLKALSK-NH2 [D16, reference compound]",selectivity factor (MICGM P. aeruginosa/MICGM A. baumannii),[3],2.7
"Ac-KLKSLLSTLSSAAKKALSTLLSALSK-NH2 [D26 (K13A, K16A)]",helical structure in aqueous buffer conditions (in words),"[1]; 50 mM potassium phosphate buffer, pH 7.0, 100 mM KCl",α-helical
Ac-KLKSLLSTLSSAKKKKLSTLLSALSK-NH2 [D26],α-helical content (% helix) in aqueous conditions,[1],8.9%
same,hemolytic activity HC50,[4],> 1776 µM
same,improvement in selectivity (MICGM P. aeruginosa/MICGM A. baumannii),[3],25 fold
same,activity against Pseudomonas aeruginosa (in words),[5],inactive
B1,PA (peptide self-association parameter),[6],7.78 min
B2,PA (peptide self-association parameter),[7],27 min
